Molecular target: T1, Recombinant human H-PGDS (Homo sapiens, UniProt O60760)
T1 construct: made in house; host or cells: E. coli
Assay: H-PGDS inhibitory activity (prostaglandin D2 production from prostaglandin H2, measured by LC-MS/MS)
Format: biochemical
Conditions: recombinant human H-PGDS 1.0 nM expressed in E. coli; prostaglandin H2 25 μM; preincubated 15 minutes on ice, reacted on ice for 1 minute; concentration that inhibits prostaglandin D2 production by 50%
How it was run: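 Recombinant human H-PGDS (E. coli-expressed, 1.0 nM final) preincubated with compound 15 min on ice in 20 mM Tris-HCl pH 8.0, 2 mM MgCl2, 2 mM GSH, 0.5 mg/mL γ-globulin. Reaction with 25 µM PGH2 run 1 min on ice, stopped with FeCl2/citric acid, PGD2 quantified by LC-MS/MS. Activity expressed as % of DMSO control after subtracting non-enzymatic PGD2.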

T1 sequence (O60760 whole entry): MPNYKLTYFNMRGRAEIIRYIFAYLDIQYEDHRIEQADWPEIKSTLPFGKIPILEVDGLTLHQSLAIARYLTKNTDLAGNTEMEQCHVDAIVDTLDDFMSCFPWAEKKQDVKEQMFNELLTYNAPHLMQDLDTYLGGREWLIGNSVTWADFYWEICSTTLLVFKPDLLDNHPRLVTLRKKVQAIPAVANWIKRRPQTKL

| SMILES | IC50 |
| --- | --- |
| O=C(N[C@@H]1CN(c2ncc(CO)cn2)C[C@@H]1F)c1ccc(-c2nccc3occc23)cc1 [Example 204, N-{(3R,4S)-4-fluoro-1-[5-(hydroxymethyl)pyrimidin-2-yl]pyrrolidin-3-yl}-4-(furo[3,2-c]pyridin-4-yl)benzamide] | 1.1 nM |
| CO[C@@H]1CN(c2ncc(CO)cn2)C[C@H]1NC(=O)c1ccc(-c2nccc3occc23)cc1 [Example 205, 4-(furo[3,2-c]pyridin-4-yl)-N-((3R,4R)-1-[5-(hydroxymethyl)pyrimidin-2-yl]-4-methoxypyrrolidin-3-yl)benzamide] | 5.6 nM |
| CO[C@H]1CN(c2ncc(CO)cn2)C[C@H]1NC(=O)c1ccc(-c2nccc3occc23)cc1 [Example 206, 4-(furo[3,2-c]pyridin-4-yl)-N-((3R,4S)-1-[5-(hydroxymethyl)pyrimidin-2-yl]-4-methoxypyrrolidin-3-yl)benzamide] | 39 nM |
| O=C(N[C@@H]1CN(c2ncc(CO)cn2)C[C@H]1O)c1ccc(-c2nccc3occc23)cc1 [Example 207, 4-(furo[3,2-c]pyridin-4-yl)-N-((3R,4R)-4-hydroxy-1-[5-(hydroxymethyl)pyrimidin-2-yl]pyrrolidin-3-yl)benzamide] | 6.7 nM |
| O=C(N[C@@H]1CN(c2ncc(CO)cn2)C[C@@H]1O)c1ccc(-c2nccc3occc23)cc1 [Example 208, 4-(furo[3,2-c]pyridin-4-yl)-N-((3R,4S)-4-hydroxy-1-[5-(hydroxymethyl)pyrimidin-2-yl]pyrrolidin-3-yl)benzamide] | 14 nM |
| O=C(NC1CC2(CNC2)C1)c1ccc(-c2nccc3occc23)cc1 [Example 209, 4-(furo[3,2-c]pyridin-4-yl)-N-(2-azaspiro[3.3]heptan-6-yl)benzamide] | 39 nM |
| O=C(NC1CC2(C1)CN(c1ncccn1)C2)c1ccc(-c2nccc3occc23)cc1 [Example 210, 4-(furo[3,2-c]pyridin-4-yl)-N-[2-(pyrimidin-2-yl)-2-azaspiro[3.3]heptan-6-yl]benzamide] | 3.5 nM |
| O=C(N[C@@H]1CC[C@@H](CO)OC1)c1ccc(-c2nccc3occc23)cc1 [Example 211, 4-(furo[3,2-c]pyridin-4-yl)-N-[(3R,6S)-6-(hydroxymethyl)tetrahydro-2 H-pyran-3-yl]benzamide] | 2.5 nM |
| CC(O)[C@@H]1CC[C@@H](NC(=O)c2ccc(-c3nccc4occc34)cc2)CO1 (stereo partly drawn) [Example 212, 4-(furo[3,2-c]pyridin-4-yl)-N-[(3R,6S)-6-(1-hydroxyethyl)tetrahydro-2 H-pyran-3-yl]benzamide] | 3.8 nM |
| CC(=O)[C@@H]1CC[C@@H](NC(=O)c2ccc(-c3nccc4occc34)cc2)CO1 [Example 213, N-[(3R,6S)-6-acetyltetrahydro-2 H-pyran-3-yl]-4-(furo[3,2-c]pyridin-4-yl)benzamide] | 4.3 nM |
| CC(C)(O)[C@@H]1CC[C@@H](NC(=O)c2ccc(-c3nccc4occc34)cc2)CO1 [Example 214, 4-(furo[3,2-c]pyridin-4-yl)-N-[(3R,6S)-6-(2-hydroxypropan-2-yl)tetrahydro-2 H-pyran-3-yl]benzamide] | 3.4 nM |
| O=C(NC1CN(c2ncccn2)C1)c1ccc(-c2nccc3occc23)cc1 [Example 217, 4-(furo[3,2-c]pyridin-4-yl)-N-[1-(pyrimidin-2-yl)azetidin-3-yl]benzamide] | 2.4 nM |
| O=C(NC[C@H]1C[C@H](O)C1)c1ccc(-c2nccc3occc23)cc1 [Example 218, 4-(furo[3,2-c]pyridin-4-yl)-N-[(trans-3-hydroxycyclobutyl)methyl]benzamide] | 21 nM |
| O=C(NC[C@H]1C[C@@H](O)C1)c1ccc(-c2nccc3occc23)cc1 [Example 219, 4-(furo[3,2-c]pyridin-4-yl)-N-[(cis-3-hydroxycyclobutyl)methyl]benzamide] | 12 nM |
| O=C(NC(CO)c1ccccn1)c1ccc(-c2nccc3occc23)cc1 (stereo not shown) [Example 220, 4-(furo[3,2-c]pyridin-4-yl)-N-[2-hydroxy-1-(pyridin-2-yl)ethyl]benzamide] | 68 nM |
| O=C(NCC1COc2ccccc2C1)c1ccc(-c2nccc3occc23)cc1 (stereo not shown) [Example 221, N-(chroman-3-ylmethyl)-4-(furo[3,2-c]pyridin-4-yl)benzamide] | 4.9 nM |
| O=C(Nc1ccc(N2CCC(C(=O)N3CCOCC3)CC2)cc1)c1ccc(-c2nccc3occc23)cc1 [Example 222, 4-(furo[3,2-c]pyridin-4-yl)-N-(4-[4-(morpholine-4-carbonyl)piperidin-1-yl]phenyl)benzamide] | 2.3 nM |
| O=C(Nc1ccc(N2CCC(C(=O)N3CCOCC3)CC2)c(F)c1)c1ccc(-c2nccc3occc23)cc1 [Example 223, N-{3-fluoro-4-[4-(morpholine-4-carbonyl)piperidin-1-yl]phenyl}-4-(furo[3,2-c]pyridin-4-yl)benzamide] | 5.3 nM |
| O=C(N[C@@H]1COCCN(c2ncccn2)C1)c1ccc(-c2nccc3occc23)cc1 [Example 224, (S)-4-(furo[3,2-c]pyridin-4-yl)-N-[4-(pyrimidin-2-yl)-1,4-oxazepan-6-yl]benzamide] | 1.8 nM |
| O=C(N[C@H]1COCCN(c2ncccn2)C1)c1ccc(-c2nccc3occc23)cc1 [Example 225, (R)-4-(furo[3,2-c]pyridin-4-yl)-N-[4-(pyrimidin-2-yl)-1,4-oxazepan-6-yl]benzamide] | 6.5 nM |
| O=C(N[C@H]1CCN(c2cccc(F)n2)C1)c1ccc(-c2nccc3occc23)cc1 [Example 226, (S)—N-[1-(6-fluoropyridin-2-yl)pyrrolidin-3-yl]-4-(furo[3,2-c]pyridin-4-yl)benzamide] | 2.8 nM |
| O=C(N[C@H]1CCN(c2cc(Cl)ncn2)C1)c1ccc(-c2nccc3occc23)cc1 [Example 227, (S)—N-[1-(6-chloropyrimidin-4-yl)pyrrolidin-3-yl]-4-(furo[3,2-c]pyridin-4-yl)benzamide] | 1.4 nM |
| O=C(N[C@H]1CCN(c2ccc(Cl)nn2)C1)c1ccc(-c2nccc3occc23)cc1 [Example 228, (S)—N-[1-(6-chloropyridazin-3-yl)pyrrolidin-3-yl]-4-(furo[3,2-c]pyridin-4-yl)benzamide] | 1.9 nM |
| O=C(N[C@H]1CCN(c2ccncn2)C1)c1ccc(-c2nccc3occc23)cc1 [Example 229, (S)-4-(furo[3,2-c]pyridin-4-yl)-N-[1-(pyrimidin-4-yl)pyrrolidin-3-yl]benzamide] | 1.5 nM |
| O=C(N[C@H]1CCN(c2cccnn2)C1)c1ccc(-c2nccc3occc23)cc1 [Example 230, (S)-4-(furo[3,2-c]pyridin-4-yl)-N-[1-(pyridazin-3-yl)pyrrolidin-3-yl]benzamide] | 1.2 nM |
| Cn1nnnc1N1CC[C@H](NC(=O)c2ccc(-c3nccc4occc34)cc2)C1 [Example 231, (S)-4-(furo[3,2-c]pyridin-4-yl)-N-[1-(1-methyl-1H-tetrazol-5-yl)pyrrolidin-3-yl]benzamide] | 3.2 nM |
| CCn1nnnc1N1CC[C@H](NC(=O)c2ccc(-c3nccc4occc34)cc2)C1 [Example 232, (S)-4-(furo[3,2-c]pyridin-4-yl)-N-[1-(1-ethyl-1H-tetrazol-5-yl)pyrrolidin-3-yl]benzamide] | 2 nM |
| O=C(N[C@H]1CCN(c2cccc(=O)[nH]2)C1)c1ccc(-c2nccc3occc23)cc1 [Example 233, (S)-4-(furo[3,2-c]pyridin-4-yl)-N-[1-(6-oxo-1,6-dihydropyridin-2-yl)pyrrolidin-3-yl]benzamide] | 7.5 nM |

Reference: US20230339937A1, “CONDENSED RING COMPOUNDS THAT INHIBIT H-PGDS” (SATO PHARMACEUTICAL CO., LTD., priority 2020, published 2023)
